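Test compounds were applied to cells in 96-well plates for 48 hours at 5 doses. GI50 marks 50% less growth.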 The source made the active and inactive calls. Cut-off read from the data, not from the text of the source: active = GI50 up to about 1.1 µM and inactive = higher.
Legend:
Assay in all cases: inhibition of tumour cell growth, NCI panel, 48 h
M14 = test system: M14
NCI/ADR-RES = test system: NCI/ADR-RES
MDA-MB-231 = test system: MDA-MB-231
BT-549 = test system: BT-549
RPMI-8226 = test system: RPMI-8226
MCF7 = test system: MCF7
SF-268 = test system: SF-268
Hs-578T = test system: Hs-578T
HCT-15 = test system: HCT-15
HT-29 = test system: HT-29
SF-539 = test system: SF-539
Malme-3M = test system: Malme-3M
DU-145 = test system: DU-145
MOLT-4 = test system: MOLT-4
K562 = test system: K562
T47D = test system: T47D
CCRF-CEM = test system: CCRF-CEM
SW-620 = test system: SW-620
UO-31 = test system: UO-31
RXF 393 = test system: RXF 393

SMILES | GI50 (M14) | GI50 (NCI/ADR-RES) | GI50 (MDA-MB-231) | GI50 (BT-549) | GI50 (RPMI-8226) | GI50 (MCF7) | GI50 (SF-268) | GI50 (Hs-578T) | GI50 (HCT-15) | GI50 (HT-29) | GI50 (SF-539) | GI50 (Malme-3M) | GI50 (DU-145) | GI50 (MOLT-4) | GI50 (K562) | GI50 (T47D) | GI50 (CCRF-CEM) | GI50 (SW-620) | GI50 (UO-31) | GI50 (RXF 393)
N#Cc1c(NC(=S)NC(=O)c2ccccc2)nc2c(c1-c1ccccc1)CCC2 | > 100 µM (inactive) | > 100 µM (inactive) | 43.9 µM (inactive) | > 100 µM (inactive) | > 100 µM (inactive) | > 10 µM (inactive) | > 100 µM (inactive) | 39.8 µM (inactive) | > 100 µM | > 100 µM (inactive) | > 100 µM (inactive) | 78.7 µM (inactive) | > 100 µM (inactive) | 58.1 µM (inactive) | > 100 µM (inactive) | 25.5 µM (inactive) | > 100 µM (inactive) | > 100 µM (inactive) | 8.67 µM (inactive) | 
O=c1c(C(c2ccc(Cl)cc2)c2c(O)c3ccccc3n(-c3ccccc3)c2=O)c(O)c2ccccc2n1-c1ccccc1 |  |  |  |  | 14.6 µM (inactive) |  | 16.9 µM (inactive) |  | 15.2 µM |  | 19.1 µM (inactive) | 21.9 µM (inactive) |  | 4.45 µM (inactive) | 40.5 µM (inactive) |  | 18.7 µM (inactive) | 34 µM (inactive) | 22 µM (inactive) | 36.6 µM (inactive)
O=C(NN=C1CCCCC1)NN=C1CCCCC1 | > 100 µM (inactive) | > 100 µM (inactive) | > 100 µM (inactive) | > 100 µM (inactive) |  | > 100 µM (inactive) |  | > 100 µM (inactive) | > 100 µM | > 100 µM (inactive) |  | > 100 µM (inactive) | > 100 µM (inactive) | > 100 µM (inactive) | > 100 µM (inactive) | > 100 µM (inactive) | > 100 µM (inactive) | > 100 µM (inactive) | > 100 µM (inactive) | > 100 µM (inactive)

Reference: ChEMBL document CHEMBL1201862, “PubChem BioAssay data set” (2004)
